Experiments:
human EP4 receptor = human EP4 receptor (Homo sapiens (Human), UniProt P35408); experiment: EP4 antagonistic activity measurement experiment using prostanoid receptor subtype expressing cells; assay type: cell-based; conditions: CHO cells expressing human EP4 receptor; inhibition of cAMP production by PGE2 10 nM; 30 minutes at room temperature
Experimental: CHO cells expressing human EP4 receptor subtypes were prepared according to the methods of Nishigaki et al. (Non-Patent Literature 4), and used for experiment. Cells cultured to subconfluent were detached, and suspended in an assay medium (MEM containing 1 mmol/L IBMX, 1% HSA) such that a concentration became 1×10^6 cells/mL. For reaction, PGE2 was added to the cell suspension (25 μL) in a final concentration of 10 nmol/L, either alone or as a 25-μL PGE2 solution containing the test compound. After 30 minutes of reaction at room temperature, the amount of cAMP in the cells was quantified according to the method in the descriptions of the cAMP assay kit (CISBIO).
Note here that the antagonistic effect (IC50 value) of the test compound was calculated as a value that represents an inhibition rate against a reaction with PGE2 alone at 10 nM, a concentration that produces a submaximal cAMP producing effect.

human EP3 receptor = human EP3 receptor (Homo sapiens (Human), UniProt P43115); experiment: EP3 binding activity measurement experiment using prostanoid receptor subtype expressing cells; conditions: human EP3 receptor expressing cell membrane fraction; [3H]-PGE2 2.5 nmol/L; Ki calculated from estimated IC50
Experimental: To each well of a 96 well plate, 10 μL of a medium (dimethyl sulfoxide; DMSO) which had been 10-fold diluted with an assay buffer solution (10 mmol/L KH2PO4—KOH containing 1 mmol/L EDTA, 10 mmol/L Mg^2+ and 100 mmol/L NaCl, pH6.0) or a DMSO solution of a test compound (final concentration of DMSO: 0.5%), 90 μL of assay buffer solution, 50 μL of 10 nmol/L [^3H]-PGE2 (final concentration: 2.5 nmol/L), and 50 μL of human EP3 receptor expressing cell membrane fraction (manufactured by Millipore) (membrane protein mass: 2.5 μg) were placed, and subjected to incubation at room temperature. In nonspecific binding group, instead of the medium, […] of PGE2 was added (final concentration of PGE2: 10 μmol/L). After 60 minutes, a membrane fraction was subjected to suction filtration using a cell harvester, and collected onto a glass fiber (GF/B) plate (hereinafter, “filter plate”) which had been wetted with a washing buffer solution (10 mmol/L KH2PO4—KOH containing 100 mmol/L NaCl, pH6.0) in advance. Furthermore, an operation of adding about 0.2 mL of the washing buffer solution to the 96 well plate after suction filtration, and carrying out suction filtration was repeated twice, and the remaining membrane fractions were collected. The filter plate was washed with […] of washing buffer solution twice, and then dried at 50° C. to 60° C. for about 60 minutes. After an accessary back seal was attached to the bottom surface of the filter plate, about 50 μL per well of liquid scintillation cocktail was added to the filter plate, and a scaling film sheet was attached to the upper surface of the filter plate. The filter plate was shaken, and then radioactivity (cpm) of the filter plate was measured using a microplate scintillation counter. A specific binding amount of [^3H]-PGE2 to EP3 receptor was calculated by subtracting the radioactivity of the nonspecific binding group from the radioactivity other than the radioactivity of the nonspecific binding group. The inhibition rate by the test compound was calculated from the specific binding amount of [^3H]-PGE2 in a medium group and the compound of the present invention group, a Ki value (dissociation constant of the test compound) was calculated from estimated IC50 value (the concentration of the test compound required for inhibiting 50% with respect to the specific binding amount of the medium group) according to the following formula.
Note here that the Kd value of [^3H]-PGE2 was estimated from nonlinear regression analysis by calculating a specific binding amount at the time when [^3H]-PGE2 having various concentrations according to the above method was added. As a result, it was shown that the compound of the present invention had weak binding activity with respect to EP3 receptor, and was an antagonist selective to the EP4 receptor. Note here that binding activities with respect to EP1 and EP2 receptors can be measured by the same method as the measurement experiment of the EP3 binding activity measurement experiment.

Chain of human EP4 receptor (P35408 whole entry): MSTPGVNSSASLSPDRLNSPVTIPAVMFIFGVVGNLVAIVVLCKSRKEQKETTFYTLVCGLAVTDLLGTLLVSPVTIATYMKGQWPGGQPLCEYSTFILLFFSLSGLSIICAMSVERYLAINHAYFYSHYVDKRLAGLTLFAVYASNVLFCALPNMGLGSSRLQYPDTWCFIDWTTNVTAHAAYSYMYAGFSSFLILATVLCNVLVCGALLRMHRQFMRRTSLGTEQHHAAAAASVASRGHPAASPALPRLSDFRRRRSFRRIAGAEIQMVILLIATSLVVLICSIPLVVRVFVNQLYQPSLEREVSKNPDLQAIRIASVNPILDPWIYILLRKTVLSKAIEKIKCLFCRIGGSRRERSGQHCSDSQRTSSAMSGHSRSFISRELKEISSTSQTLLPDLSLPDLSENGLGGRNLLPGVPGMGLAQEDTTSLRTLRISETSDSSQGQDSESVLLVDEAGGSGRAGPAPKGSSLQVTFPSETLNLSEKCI
Chain of human EP3 receptor (P43115 whole entry): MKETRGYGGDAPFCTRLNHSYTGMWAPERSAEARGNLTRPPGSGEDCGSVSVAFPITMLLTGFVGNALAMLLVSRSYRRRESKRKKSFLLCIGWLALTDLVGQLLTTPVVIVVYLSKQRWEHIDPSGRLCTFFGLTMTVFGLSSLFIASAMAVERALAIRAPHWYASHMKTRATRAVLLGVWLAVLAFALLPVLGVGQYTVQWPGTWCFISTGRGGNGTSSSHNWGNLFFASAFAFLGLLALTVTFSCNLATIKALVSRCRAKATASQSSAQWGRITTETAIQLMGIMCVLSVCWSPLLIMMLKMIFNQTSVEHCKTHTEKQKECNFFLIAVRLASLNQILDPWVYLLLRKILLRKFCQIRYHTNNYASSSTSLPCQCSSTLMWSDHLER

| IC50 (human EP4 receptor) | Ki (human EP3 receptor) | Structure (SMILES) |
| --- | --- | --- |
| 6.3 nM | 1600 nM | COCCNC(=O)c1ccc2c(c1)c(C)cn2C(C)C(=O)Nc1cc(Cn2cc(C)cn2)ccc1CCCC(=O)O (single isomer, unassigned) [Example 8-13(2), 4-{2-[(2-{5-[(2-methoxyethyl)carbamoyl]-3-methyl-1H-indol-1-yl}propanoyl)amino]-4-[(4-methyl-1H-pyrazol-1-yl)methyl]phenyl}butanoic acid] |
| 27 nM | > 10000 nM | CNC(=O)c1ccc2c(C)cn(C(C)C(=O)Nc3cc(CN4CCCS4(=O)=O)ccc3CCCC(=O)O)c2c1 (centres unmarked) [Example 1, 4-{4-[(1,1-dioxide-1,2-thiazolidin-2-yl)methyl]-2-({2-[3-methyl-6-(methylcarbamoyl)-1H-indol-1-yl]propanoyl}amino)phenyl}butanoic acid] |
| 4.8 nM | 1500 nM | CNC(=O)c1ccc2c(c1)c(C)cn2C(C)C(=O)Nc1cc(Cn2cc(C)cn2)ccc1CCCC(=O)O (single isomer, unassigned) [Example 8-3(2), 4-{2-({2-[3-methyl-5-(methylcarbamoyl)-1H-indol-1-yl]propanoyl}amino)-4-[(4-methyl-1H-pyrazol-1-yl)methyl]phenyl}butanoic acid] |
| 1.9 nM | 2300 nM | COCCNC(=O)c1ccc2c(C)cn(C(C)C(=O)Nc3cc(C#N)ccc3CCCC(=O)O)c2c1 (single isomer, unassigned) [Example 11-15(2), 4-{4-cyano-2-[(2-{6-[(2-methoxyethyl)carbamoyl]-3-methyl-1H-indol-1-yl}propanoyl)amino]phenyl}butanoic acid] |
| 0.7 nM | 410 nM | COCCNC(=O)c1ccc2c(C)cn(C(C)C(=O)Nc3cc(Cn4cc(C)cn4)ccc3CCCC(=O)O)c2c1 (single isomer, unassigned) [Example 3-9(2), 4-{2-[(2-{6-[(2-methoxyethyl)carbamoyl]-3-methyl-1H-indol-1-yl}propanoyl)amino]-4-[(4-methyl-1H-pyrazol-1-yl)methyl]phenyl}butanoic acid] |
| 2.7 nM |  | CNC(=O)c1ccc2c(C)cn(C(C)C(=O)Nc3cc(Cn4cc(C(C)C)nn4)ccc3CCCC(=O)O)c2c1 (single isomer, unassigned) [Example 6-5(1), 4-{4-[(4-isopropyl-1H-1,2,3-triazol-1-yl)methyl]-2-({2-[3-methyl-6-(methylcarbamoyl)-1H-indol-1-yl]propanoyl}amino)phenyl}butanoic acid] |
| 2.1 nM |  | CCCNC(=O)c1ccc2c(C)cn(C(C)C(=O)Nc3cc(Cn4cc(C)cn4)ccc3CCCC(=O)O)c2c1 (single isomer, unassigned) [Example 3-5(2), 4-{2-({2-[3-methyl-6-(propylcarbamoyl)-1H-indol-1-yl]propanoyl}amino)-4-[(4-methyl-1H-pyrazol-1-yl)methyl]phenyl}butanoic acid] |
| 1.8 nM |  | CNC(=O)c1ccc2c(C)cn(C(C)C(=O)Nc3cc(Cn4nc(C)cc4C(F)(F)F)ccc3CCCC(=O)O)c2c1 (single isomer, unassigned) [Example 2-27(4), 4-[2-({2-[3-methyl-6-(methylcarbamoyl)-1H-indol-1-yl]propanoyl}amino)-4-{[3-methyl-5-(trifluoromethyl)-1H-pyrazol-1-yl]methyl}phenyl]butanoic acid] |
| 1.2 nM |  | CNC(=O)c1ccc2c(C)cn(C(C)C(=O)Nc3cc(Cn4cc(C)c(C)n4)ccc3CCCC(=O)O)c2c1 (single isomer, unassigned) [Example 2-6(2), 4-{4-[(3,4-dimethyl-1H-pyrazol-1-yl)methyl]-2-({2-[3-methyl-6-(methylcarbamoyl)-1H-indol-1-yl]propanoyl}amino)phenyl}butanoic acid] |
| 5.5 nM |  | CNC(=O)c1ccc2c(C)cn(C(C)C(=O)Nc3cc(Cn4cc5c(n4)CCC5)ccc3CCCC(=O)O)c2c1 (centres unmarked) [Example 2-18, 4-[4-(5,6-dihydrocyclopenta[c]pyrazol-2(4H)-ylmethyl)-2-({2-[3-methyl-6-(methylcarbamoyl)-1H-indol-1-yl]propanoyl}amino)phenyl]butanoic acid] |
| 4.6 nM |  | Cc1cnn(Cc2ccc(CCCC(=O)O)c(NC(=O)C(C)n3cc(C)c4ccc(C(=O)N(C)C)cc43)c2)c1 (single isomer, unassigned) [Example 3-11(2), 4-{2-({2-[6-(dimethylcarbamoyl)-3-methyl-1H-indol-1-yl]propanoyl}amino)-4-[(4-methyl-1H-pyrazol-1-yl)methyl]phenyl}butanoic acid] |
| 0.9 nM |  | CCNC(=O)c1ccc2c(C)cn(C(C)C(=O)Nc3cc(Cn4cc(C)cn4)ccc3CCCC(=O)O)c2c1 (single isomer, unassigned) [Example 3-3(2), 4-{2-({2-[6-(ethylcarbamoyl)-3-methyl-1H-indol-1-yl]propanoyl}amino)-4-[(4-methyl-1H-pyrazol-1-yl)methyl]phenyl}butanoic acid] |

| Structure (SMILES) | IC50 (human EP4 receptor) | Ki (human EP3 receptor) |
| --- | --- | --- |
| CNC(=O)c1ccc2c(C)cn(C(C)C(=O)Nc3cc(C(=O)c4cnn(C)c4)ccc3CCCC(=O)O)c2c1 (centres unmarked) [Example 18-5(2)] | 3.2 nM | 120 nM |
| CCNC(=O)c1ccc2c(C)cn([C@H](C)C(=O)Nc3cc(C#N)ccc3CCCC(=O)O)c2c1 [Example 11-1(2)] | 1.3 nM |  |
